Laboratory results published in patent US20080221086A1, “Novel Inhibitors of Glutaminyl Cyclase” (PROBIODRUG AG, priority 2006, published 2008).

Target: hQC (Homo sapiens, UniProt Q16769)
Test: Fluorometric assay of glutaminyl cyclase (QC) inhibition, H-Gln-βNA or H-Gln-AMC substrate
Type: biochemical
Details: read-out: IC50
In short: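 Fluorometric coupled assays at 30° C in Tris/HCl pH 8.0 with EDTA and pyroglutamyl aminopeptidase used either 0.2 mM H-Gln-βNA (320/410 nm) or H-Gln-AMC (380/460 nm), started by QC. Screening used 4 mM inhibitor at substrate 1 KM. Ki came from fitting progress curves to competitive inhibition.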

hQC, sequence (Q16769 29-361): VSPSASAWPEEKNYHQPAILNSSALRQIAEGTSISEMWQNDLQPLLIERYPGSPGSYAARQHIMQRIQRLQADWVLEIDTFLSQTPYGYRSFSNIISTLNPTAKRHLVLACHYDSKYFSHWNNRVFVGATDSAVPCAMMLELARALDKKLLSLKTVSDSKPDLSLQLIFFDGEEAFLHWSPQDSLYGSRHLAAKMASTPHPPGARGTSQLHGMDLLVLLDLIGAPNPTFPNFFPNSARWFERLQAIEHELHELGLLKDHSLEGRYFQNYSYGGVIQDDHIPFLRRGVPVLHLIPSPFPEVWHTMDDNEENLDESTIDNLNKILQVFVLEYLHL

| Compound | IC50 |
| --- | --- |
| O=C1N/C(=N\Cc2ccccc2)C(c2ccccc2Cl)N1CCCn1ccnc1 (stereo not shown) [Compound 97, 4-Benzylimino-5-(2-chloro-phenyl)-1-(3-imidazol-1-yl-propyl)-imidazolidin-2-one] | 4 µM |
| O=C1N/C(=N\Cc2ccccc2)C(c2ccccc2F)N1CCCn1ccnc1 (stereo not shown) [Compound 98, 4-Benzylimino-5-(2-fluoro-phenyl)-1-(3-imidazol-1-yl-propyl)-imidazolidin-2-one] | 5.8 µM |
| O=C1N/C(=N/Cc2ccccc2)C(c2ccc(O)cc2)N1CCCn1ccnc1 (stereo not shown) [Compound 99, 4-Benzylimino-5-(4-hydroxy-phenyl)-1-(3-imidazol-1-yl-propyl)-imidazolidin-2-one] | 6.7 µM |
| O=C1N/C(=N\c2ccc(Oc3ccccc3)cc2)C(C2CCC=CO2)N1CCCn1ccnc1 (stereo not shown) [Compound 100, 5-(3,4-Dihydro-2H-pyran-2-yl)-1-(3-imidazol-1-yl-propyl)-4-4-phenoxy-phenylimino-imidazolidin-2-one] | 4.9 µM |
| O=C1N/C(=N\c2ccc(Oc3ccccc3)cc2)C(c2ccc(Cl)c(F)c2)N1CCCn1ccnc1 (stereo not shown) [Compound 101, 5-(4-Chloro-3-fluoro-phenyl)-1-(3-imidazol-1-yl-propyl)-4-4-phenoxy-phenylimino-imidazolidin-2-one] | 7.6 µM |
| O=C1NC(=Nc2ccc(Oc3ccccc3)cc2)C(CO)N1CCCn1ccnc1 (stereo not shown) [Compound 102, 5-Hydroxymethyl-1-(3-imidazol-1-yl-propyl)-4-4-phenoxy-phenylimino-imidazolidin-2-one] | 8.5 µM |
| CCCCC1C(=Nc2ccc(Oc3ccccc3)cc2)NC(=O)N1CCCn1ccnc1 (stereo not shown) [Compound 103, 5-Butyl-1-(3-imidazol-1-yl-propyl)-4-4-phenoxy-phenylimino-imidazolidin-2-one] | 9.4 µM |
| CCCC1/C(=N\CCC(c2ccccc2)c2ccccc2)NC(=O)N1CCCn1ccnc1 (stereo not shown) [Compound 104, 4-3,3-Diphenyl-propylimino-1-(3-imidazol-1-yl-propyl)-5-propyl-imidazolidin-2-one] | 9.4 µM |
| O=C1N/C(=N\CCC(c2ccccc2)c2ccccc2)C(c2ccccc2)N1CCCn1ccnc1 (stereo not shown) [Compound 105, 4-3,3-Diphenyl-propylimino-1-(3-imidazol-1-yl-propyl)-5-phenyl-imidazolidin-2-one] | 3.1 µM |
| O=C1N/C(=N\CCC(c2ccccc2)c2ccccc2)C(C2CCC=CO2)N1CCCn1ccnc1 (stereo not shown) [Compound 106, 5-(3,4-Dihydro-2H-pyran-2-yl)-4-3,3-diphenyl-propylimino-1-(3-imidazol-1-yl-propyl)-imidazolidin-2-one] | 7.6 µM |
| O=C1N/C(=N\CCC(c2ccccc2)c2ccccc2)C(c2cccc(F)c2F)N1CCCn1ccnc1 (stereo not shown) [Compound 107] | 6.7 µM |
| O=C1N/C(=N\CCC(c2ccccc2)c2ccccc2)C(c2cc(F)cc(F)c2)N1CCCn1ccnc1 (stereo not shown) [Compound 108, 5-(3,5-Dihydro-phenyl)-4-3,3-diphenyl-propylimino-1-(3-imidazol-1-yl-propyl)-imidazolidin-2-one] | 6.7 µM |
| O=C1NC(=NCCC(c2ccccc2)c2ccccc2)C(c2ccc(Cl)c(F)c2)N1CCCn1ccnc1 (stereo not shown) [Compound 109, 5-(4-Chloro-3-fluoro-phenyl)-4-3,3-diphenyl-propylimino-1-(3-imidazol-1-yl-propyl)-imidazolidin-2-one] | 7.6 µM |
| O=C1N/C(=N\CCC(c2ccccc2)c2ccccc2)C(c2ccccc2Cl)N1CCCn1ccnc1 (stereo not shown) [Compound 110, 5-(2-Chloro-phenyl)-4-3,3-diphenyl-propylimino-1-(3-imidazol-1-yl-propyl)-imidazolidin-2-one] | 6.7 µM |
| O=C1N/C(=N/CCC(c2ccccc2)c2ccccc2)C(CO)N1CCCn1ccnc1 (stereo not shown) [Compound 111, 4-3,3-Diphenyl-propylimino-5-hydroxymethyl-1-(3-imidazol-1-yl-propyl)-imidazolidin-2-one] | 9.4 µM |
| O=C1N/C(=N\CCC(c2ccccc2)c2ccccc2)C(c2ccccc2F)N1CCCn1ccnc1 (stereo not shown) [Compound 112, 4-3,3-Diphenyl-propylimino-5-(2-fluoro-phenyl)-1-(3-imidazol-1-yl-propyl)-imidazolidin-2-one] | 6.7 µM |
| O=C1N/C(=N\CCC(c2ccccc2)c2ccccc2)C(c2cccc(F)c2)N1CCCn1ccnc1 (stereo not shown) [Compound 113, 4-3,3-Diphenyl-propylimino-5-(3-fluoro-phenyl)-1-(3-imidazol-1-yl-propyl)-imidazolidin-2-one] | 7.6 µM |
| O=C1NC(=NCC2CCCO2)C(c2cccc(F)c2F)N1CCCn1ccnc1 (stereo not shown) [Compound 114, 5-(2,3-Difluoro-phenyl)-1-(3-imidazol-1-yl-propyl)-4-tetrahydro-furan-2-ylmethylimino-imidazolidin-2-one] | 8.5 µM |
| O=C1NC(=NCC2CCCO2)C(c2cc(F)cc(F)c2)N1CCCn1ccnc1 (stereo not shown) [Compound 115, 5-(3,5-Difluoro-phenyl)-1-(3-imidazol-1-yl-propyl)-4-tetrahydro-furan-2-ylmethylimino-imidazolidin-2-one] | 7.6 µM |
| Cc1ccc(C2/C(=N/C(C)(C)CC(C)(C)C)NC(=S)N2c2ccc3nc[nH]c3c2)cc1 (stereo not shown) [Compound 118, 1-(3H-Benzoimidazol-5-yl)-4-1,1,3,3-tetramethyl-butylimino-5-p-tolyl-imidazolidine-2-thione] | 5.8 µM |
| O=C(C/N=C1\NC(=S)N(c2ccc3[nH]cnc3c2)C1c1cc(Br)cc(Br)c1)N1CCSCC1 (stereo not shown) [Compound 125, 2-(1-(1H-benzo[d]imidazol-5-yl)-5-(3,5-dibromophenyl)-2-thioxoimidazolidin-4-ylideneamino)-1-thiomorpholinoethan-one] | 2.2 µM |
| CC(CC1/C(=N/C2CCCCCC2)NC(=O)N1c1ccc2nc[nH]c2c1)CC(C)(C)C (stereo not shown) [Compound 130, 1-(3H-Benzoimidazol-5-yl)-4-cycloheptylimino-5-(2,4,4-trimethyl-pentyl)-imidazolidin-2-one] | 7.6 µM |
| S=C1N/C(=N/Cc2ccc3[nH]ccc3c2)C(c2cc(Br)cc(Br)c2)N1c1ccc2nc[nH]c2c1 (stereo not shown) [Compound 132, 1-(3H-Benzoimidazol-5-yl)-5-(3,5-dibromo-phenyl)-4-1H-indol-5-ylmethylimino-imidazolidine-2-thione] | 4.9 µM |

Further lines, results first:

| IC50 | Compound |
| --- | --- |
| 0.004 µM | C/N=C1/NC(=O)N(c2ccc3[nH]cnc3c2)C1c1ccc2[nH]ccc2c1 (stereo not shown) [Compound 116, 1-(1H-Benzoimidazol-5-yl)-5-(1H-indol-5-yl)-4-methylimino-imidazolidin-2-one] |
| 1.3 µM | O=C1N/C(=N/C2CC2)C(c2ccc(Cl)c(F)c2)N1c1ccc2[nH]cnc2c1 (stereo not shown) [Compound 117, 1-(1H-Benzoimidazol-5-yl)-5-(4-chloro-3-fluoro-phenyl)-4-cyclopropylimino-imidazolidin-2-one] |
| 6.7 µM | O=C(C/N=C1/NC(=O)N(c2ccc3[nH]cnc3c2)C1c1cc(Br)cs1)N1CCCCC1 (stereo not shown) [Compound 119, 1-(1H-Benzoimidazol-5-yl)-5-(4-bromo-thiophen-2-yl)-4-2-oxo-2-piperidin-1-yl-ethylimino-imidazolidin-2-one] |
| 1.3 µM | Cc1ccc2c(C3/C(=N\CCCc4ccccc4)NC(=O)N3c3ccc4[nH]cnc4c3)c[nH]c2c1 (stereo not shown) [Compound 120, 1-(1H-Benzoimidazol-5-yl)-5-(6-methyl-1H-indol-3-yl)-4-3-phenyl-propylimino-imidazolidin-2-one] |
| 0.4 µM | O=C1N/C(=N\C2CCc3ccccc32)C(c2ccnc3ccccc23)N1c1ccc2[nH]cnc2c1 (stereo not shown) [Compound 121, 1-(1H-Benzoimidazol-5-yl)-4-indan-1-ylimino-5-quinolin-4-yl-imidazolidin-2-one] |
| 0.4 µM | O=C1N/C(=N\C2CCCCC2O)C(c2ccc3[nH]ccc3c2)N1c1ccc2[nH]cnc2c1 (stereo not shown) [Compound 122, 1-(1H-Benzoimidazol-5-yl)-4-2-hydroxy-cyclohexylimino-5-(1H-indol-5-yl)-imidazolidin-2-one] |
| 0.4 µM | C/N=C1/NC(=O)N(c2ccc3[nH]cnc3c2)C1c1ccc2c(c1)OCCO2 (stereo not shown) [Compound 123, 1-(1H-Benzoimidazol-5-yl)-5-(2,3-dihydro-benzo1,4dioxin-6-yl)-4-methylimino-imidazolidin-2-one] |
| 3.1 µM | O=c1c(C2/C(=N/Cc3ccccc3)NC(=S)N2c2ccc3[nH]cnc3c2)coc2ccccc12 (stereo not shown) [Compound 124, 3-{3-(1H-Benzoimidazol-5-yl)-5-benzylimino-2-thioxo-imidazolidin-4-yl}-chromen-4-one] |
| 4.9 µM | N#Cc1cccc(/N=C2\NC(=S)N(c3ccc4[nH]cnc4c3)C2c2ccc3c(c2)OCCO3)c1 (stereo not shown) [Compound 126, 3-(1-(1H-benzo[d]imidazol-5-yl)-5-(2,3-dihydrobenzo[b][1,4]dioxin-6-yl)-2-thioxoimidazolidin-4-ylideneamino)benzo-nitrile] |
| 4 µM | Cc1ccc2occ(C3/C(=N/C4CCCCC4O)NC(=O)N3c3ccc4[nH]cnc4c3)c(=O)c2c1 (stereo not shown) [Compound 127, 1-(1H-Benzoimidazol-5-yl)-4-2-hydroxy-cyclohexylimino-5-(6-methyl-4-oxo-4H-chromen-3-yl)-imidazolidin-2-one] |
| 3.1 µM | O=C1N/C(=N/Cn2nnc3ccccc32)C(c2ccc(Cl)cc2)N1c1ccc2[nH]cnc2c1 (stereo not shown) [Compound 128, 1-(1H-Benzoimidazol-5-yl)-4-benzotriazol-1-ylmethylimino-5-(4-chloro-phenyl)-imidazolidin-2-one] |
| 0.004 µM | O=C1N/C(=N\C2CCCC2)C(c2ccc(N3CCCC3)cc2)N1c1ccc2[nH]cnc2c1 (stereo not shown) [Compound 129, 1-(1H-Benzoimidazol-5-yl)-4-cyclopentylimino-5-(4-pyrrolidin-1-yl-phenyl)-imidazolidin-2-one] |
| 5.8 µM | S=C1N/C(=N/CCCc2ccccc2)C(c2cc(Br)cc(Br)c2)N1c1ccc2[nH]cnc2c1 (stereo not shown) [Compound 131, 1-(1H-Benzoimidazol-5-yl)-5-(3,5-dibromo-phenyl)-4-3-phenyl-propylimno-imidazolidine-2-thione] |
| 5.8 µM | S=C1N/C(=N/Cc2ccccc2)C(c2ccc(Br)cc2)N1c1ccc2[nH]cnc2c1 (stereo not shown) [Compound 133, 1-(1H-Benzoimidazol-5-yl)-4-benzylimino-5-(4-bromo-phenyl)-imidazolidine-2-thione] |
